Test results from US12252481B2, “Anti-viral compounds” (Aligos Therapeutics, Inc., priority 2021, dated 2025).
Read-outs that look alike come from different tables or passages of the source.

Key:
SARS-Cov-2 3CLpro = molecular target: T1, SARS-Cov-2 3CLpro (Severe acute respiratory syndrome coronavirus 2, UniProt P0DTD1); assay: biochemical
T1 construct: 3CLpro and HRV3C was added using a Multidrop Combi

HRV3C = molecular target: T2, HRV3C (Human rhinovirus 14, UniProt P03303); assay: biochemical; parameters: species or system HRV
T2 construct: 3CLpro and HRV3C was added using a Multidrop Combi
T2 sequence (P03303 1538-1719): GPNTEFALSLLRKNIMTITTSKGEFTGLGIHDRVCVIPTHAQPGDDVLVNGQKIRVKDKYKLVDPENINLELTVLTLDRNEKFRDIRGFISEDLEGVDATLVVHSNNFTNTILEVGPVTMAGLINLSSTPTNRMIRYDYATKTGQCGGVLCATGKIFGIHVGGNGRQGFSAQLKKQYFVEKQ

[1] = test system: human beta-coronavirus OC43; assay: OC43 coronavirus antiviral assay in HeLa cells (cytopathic effect, cell-titer-glo); format: cell-based; conditions: 6 days at 33° C., read-out: EC50 (class)
[2] = test system: SARS-CoV-2-GHB-03021/2020; format: cell-based; conditions: read-out: VeroE6 + CP (EC50)
[3] = test system: B.1.1.7 lineage SARS-CoV-2; assay: microbe, parasite or virus in culture; format: cell-based
human cathepsin L = molecular target: T3, human cathepsin L (Homo sapiens, UniProt P07711); assay: Cathepsin L assay (Z-FR-AMC fluorescence); format: biochemical; conditions: 10 pM human cathepsin L, 30 mins preincubation, Z-FR-AMC 2 μM
T3 construct: purchased R&D Systems
T3 sequence (P07711 114-333): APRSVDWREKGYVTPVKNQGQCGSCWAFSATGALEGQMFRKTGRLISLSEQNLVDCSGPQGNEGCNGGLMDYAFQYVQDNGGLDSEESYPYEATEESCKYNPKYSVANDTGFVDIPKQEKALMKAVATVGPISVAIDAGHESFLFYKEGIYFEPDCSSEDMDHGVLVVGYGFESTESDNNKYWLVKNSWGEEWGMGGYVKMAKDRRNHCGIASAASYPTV
Method in brief: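 Human cathepsin L (10 pM) was preincubated 30 min with compound, then reactions were started with Z-FR-AMC substrate (2 μM final). AMC fluorescence (355/460 nm) was read every 2 min over 30 min. IC50 came from a four-parameter curve fit.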

in vitro [4] = conditions: human
in vitro [5] = conditions: human; remark: listed apart in the source
Vero E6-eGFP cells = conditions: read-out: VeroE6 + CP (CC50), absence of virus, numeric values
[6] = test system: A549-dual_ACE2_TMPRSS2 cells; conditions: read-out: A549-dual_ACE2_TMPRSS2 (CC50); assay medium without virus, MTS, numeric values
[7] = Cytotoxicity in HeLa cells without OC43 virus (cell-titer-glo); conditions: human
SARS-CoV-2 = conditions: cited from earlier work
3CLpro = 3CLpro (Severe acute respiratory syndrome coronavirus 2, UniProt P0DTD1); conditions: cited from earlier work
[8] = 3CLpro, 30 mins preincubation, SAMDI-MS, read-out: SARS-Cov-2 IC50 (class)
[9] = HRV3C, 30 mins preincubation, SAMDI-MS, read-out: HRV IC50 (bound)
[10] = Betacoronavirus 1, OC43, HeLa, 144 h
[11] = Severe acute respiratory syndrome coronavirus 2, 96 h; read-out: A549-dual_ACE2_TMPRSS2 (EC50)
[12] = read-out: A549-dual_ACE2_TMPRSS2 (EC50)

SMILES | IC50 (SARS-Cov-2 3CLpro; [8]) [nM] | IC50 (HRV3C; [9]) [nM] | EC50 [1, 10] [nM] | EC50 [2] [nM] | EC50 [3, 11] [nM] | IC50 (human cathepsin L) [nM] | CC50 (in vitro [4]) [nM] | CC50 (in vitro [5]) [nM] | EC50 [1] [nM] | EC50 [3, 12] [nM] | CC50 (HeLa cells) [nM] | CC50 (Vero E6-eGFP cells) [nM] | CC50 [6] [nM] | IC50 (SARS-Cov-2 3CLpro) [nM] | IC50 (HRV3C) [nM] | EC50 ([3]; Severe acute respiratory syndrome coronavirus 2, 96 h, read-out: A549-dual_ACE2_TMPRSS2 (EC50)) [nM] | CC50 at 6 days [7] [nM] | antiviral effect (SARS-CoV-2; A549-ACE2 when TMPRSS2 was expressed (Steuten et al.)) | inhibition of SARS-CoV-2 (SARS-CoV-2; VeroE6, A549-ACE2 and/or HeLa-ACE2 (Mellott et al.)) | inhibitory effect on the 3CLpro (3CLpro)
Cc1cn(C(C(=O)N2C[C@H]3[C@@H]([C@H]2C(=O)N[C@H](C#N)C[C@@H]2CCNC2=O)[C@H]2C=C[C@@H]3C2)C(C)(C)C)nn1 (stereo partly shown) [Compound 53] | 20 to 200 | > 10000 | 1000 to 10000 | 100 to 1000 | 1000 to 10000 | ≥ 10000 | > 10000 | > 10000 |  |  |  |  |  |  |  |  |  |  |  | 
[2H]C1=C[C@@H]2C[C@H]1[C@H]1[C@@H]2CN(C(=O)[C@@H](NC(=O)C(F)(F)C(F)(F)F)C(C)(C)C)[C@@H]1C(=O)N[C@H](C#N)C[C@@H]1CCNC1=O [Compound 125] | < 20 | > 500 | < 100 |  |  |  | > 100000 |  |  |  |  |  |  |  |  |  |  |  |  | 
CC(C)(C)[C@H](NC(=O)C(F)(F)Cl)C(=O)N1C[C@@H]2[C@H]3C[C@@H]([C@@H]2[C@H]1C(=O)N[C@H](C#N)C[C@@H]1CCNC1=O)[C@H](F)C3 [Compound 134, (1S,3aR,4S,6R,7S,7aR)-2-((S)-2-(2-chloro-2,2-difluoroacetamido)-3,3-dimethylbutanoyl)-N-((S)-1-cyano-2-((S)-2-oxopyrrolidin-3-yl)ethyl)-6-fluorooctahydro-1H-4,7-methanoisoindole-1-carboxamide] | < 20 | > 500 | < 100 |  |  | ≥ 10000 | > 100000 |  |  |  |  |  |  |  |  |  |  |  |  | 
CO[C@H](C(C)C)[C@H](NC(=O)C(F)(F)C(F)(F)F)C(=O)N1C[C@H]2[C@@H]([C@H]1C(=O)N[C@H](C#N)C[C@@H]1CCNC1=O)[C@H]1C=C[C@@H]2C1 [Compound 135] | < 20 | > 500 |  |  | < 100 | ≥ 10000 |  | > 1000 |  |  |  |  |  |  |  |  |  |  |  | 
Cc1cc(C(=O)N[C@H](C(=O)N2C[C@H]3[C@@H]([C@H]2C(=O)N[C@H](C#N)C[C@@H]2CCNC2=O)[C@H]2C=C[C@@H]3C2)C(C)(C)C)no1 [Example 4, (1R,2S,3S,6R,7S)—N-[(1S)-1-cyano-2-[(3S)-2-oxopyrrolidin-3-yl]ethyl]-4-[(2S)-3,3-dimethyl-2-[(5-methyl-1,2-oxazol-3-yl)formamido]butanoyl]-4-azatricyclo[5.2.1.0^{2,6}]dec-8-ene-3-carboxamide] | 20 to 200 | > 10000 |  | 100 to 1000 |  | ≥ 10000 |  |  | < 100 | 100 to 1000 | > 100000 | > 50000 | > 10000 |  |  |  |  |  |  | 
CC(C)(C)[C@H](NC(=O)c1ccccn1)C(=O)N1C[C@H]2[C@@H]([C@H]1C(=O)N[C@H](C#N)C[C@@H]1CCNC1=O)[C@H]1C=C[C@@H]2C1 [Example 5, (1R,2S,3S,6R,7S)—N-[(1S)-1-cyano-2-[(3S)-2-oxopyrrolidin-3-yl]ethyl]-4-[(2S)-3,3-dimethyl-2-(pyridin-2-ylformamido)butanoyl]-4-azatricyclo[5.2.1.0^{2,6}]dec-8-ene-3-carboxamide] | 200 to 2000 | > 10000 |  | 1000 to 10000 |  | ≥ 10000 |  |  | 100 to 1000 | 1000 to 10000 | > 100000 | > 50000 | > 10000 |  |  |  |  |  |  | 
CC(C)(C)[C@H](NC(=O)C(F)(F)F)C(=O)N1C[C@@H]2[C@@H]3CC[C@@H](C3)[C@@H]2[C@H]1C(=O)N[C@H](C#N)C[C@@H]1CC2(CC2)NC1=O [Example 15, (1S,3aR,4R,7S,7aS)-N-((S)-1-cyano-2-((R)-5-oxo-4-azaspiro[2.4]heptan-6-yl)ethyl)-2-((S)-3,3-dimethyl-2-(2,2,2-trifluoroacetamido)butanoyl)octahydro-1H-4,7-methanoisoindole-1-carboxamide] | < 20 | > 10000 |  | < 100 | < 100 | ≥ 10000 |  | > 10000 |  |  |  |  |  |  |  |  |  |  |  | 
CC(C)(C)[C@H](NC(=O)C1(C(F)(F)F)CC1)C(=O)N1C[C@H]2[C@@H]([C@H]1C(=O)N[C@H](C#N)C[C@@H]1CCNC1=O)[C@H]1C=C[C@@H]2C1 [Example 20, (1R,2S,3S,6R,7S)—N-[(1S)-1-cyano-2-[(3S)-2-oxopyrrolidin-3-yl]ethyl]-4-[(2S)-3,3-dimethyl-2-{[1-(trifluoromethyl)cyclopropyl]formamido}butanoyl]-4-azatricyclo[5.2.1.0^{2,6}]dec-8-ene-3-carboxamide] | < 20 | > 10000 |  | < 100 |  | ≥ 10000 |  |  | < 100 | 100 to 1000 | > 100000 | > 50000 | > 10000 |  |  |  |  |  |  | 
CC(C)(C)[C@H](NC(=O)C1CC1)C(=O)N1C[C@H]2[C@@H]([C@H]1C(=O)N[C@H](C#N)C[C@@H]1CCNC1=O)[C@H]1C=C[C@@H]2C1 [Example 21, (1R,2S,3S,6R,7S)—N-[(1S)-1-cyano-2-[(3S)-2-oxopyrrolidin-3-yl]ethyl]-4-[(2S)-2-(cyclopropylformamido)-3,3-dimethylbutanoyl]-4-azatricyclo[5.2.1.0^{2,6}]dec-8-ene-3-carboxamide] | < 20 | > 10000 |  | < 100 |  | ≥ 10000 |  |  | < 100 | < 100 | > 100000 | > 50000 | > 10000 |  |  |  |  |  |  | 
CC(C)(C)[C@H](NC(=O)C(F)(F)F)C(=O)N1C[C@H]2[C@@H]([C@H]1C(=O)N[C@H](C#N)C[C@@H]1CCNC1=O)[C@H]1C=C[C@@H]2C12CC2 [Example 25, (1′R,2′S,3′S,6′R,7′S)—N-[(1S)-1-cyano-2-[(3S)-2-oxopyrrolidin-3-yl]ethyl]-4′-[(2S)-3,3-dimethyl-2-(2,2,2-trifluoroacetamido)butanoyl]-4′-azaspiro[cyclopropane-1,10′-tricyclo[5.2.1.0^{2,6}]decan]-8′-ene-3′-carboxamide] |  |  | < 100 | 100 to 1000 |  | ≥ 10000 |  | > 10000 |  |  |  |  |  | < 20 | > 10000 | 100 to 1000 | > 100000 |  |  | 
CC(C)(C)[C@H](NC(=O)C(F)(F)F)C(=O)N1C[C@H]2[C@@H]([C@H]1C(=O)N[C@H](C#N)CC1Cc3ccccc3NC1=O)[C@H]1C=C[C@@H]2C1 (stereo partly drawn) [Example 29, (1S,3aR,4S,7R,7aS)—N-((1S)-1-cyano-2-(2-oxo-1,2,3,4-tetrahydroquinolin-3-yl)ethyl)-2-((S)-3,3-dimethyl-2-(2,2,2-trifluoroacetamido)butanoyl)-2,3,3a,4,7,7a-hexahydro-1H-4,7-methanoisoindole-1-carboxamide] | < 20 | > 10000 | < 100 | < 100 | < 100 | ≥ 10000 | > 10000 | > 10000 |  |  |  |  |  |  |  |  |  |  |  | 
CC(C)(C)[C@H](NC(=O)C(F)(F)F)C(=O)N1C[C@@H]2[C@@H]3CC[C@@H](C3)[C@@H]2[C@H]1C(=O)N[C@H](C#N)CC1Cc2ccccc2NC1=O (stereo partly drawn) [Example 31, (1S,3aR,4R,7S,7aS)—N-((1S)-1-cyano-2-(2-oxo-1,2,3,4-tetrahydroquinolin-3-yl)ethyl)-2-((S)-3,3-dimethyl-2-(2,2,2-trifluoroacetamido)butanoyl)octahydro-1H-4,7-methanoisoindole-1-carboxamide] | < 20 | > 10000 | 100 to 1000 | 100 to 1000 | < 100 | ≥ 10000 | > 10000 | > 10000 |  |  |  |  |  |  |  |  |  |  |  | 
CN1CCN(C(=O)N[C@@H](Cc2ccccc2)C(=O)N[C@H](/C=C/S(=O)(=O)c2ccccc2)CCc2ccccc2)CC1 [Example K117777] |  |  |  |  |  |  |  |  |  |  |  |  |  |  |  |  |  | abolished | potent inhibition | lacks an inhibitory effect
